Laboratory results taken from PubChem BioAssay AID330 (DTP/NCI, 2004).
Values joined by “and” are separate entries in the source; they are usually repeats but may differ in a detail not shown here. Identical values can stand only once. Inconclusive results and toxic doses are left out. Bridge positions count the residues as written; N and C are the ends. Square brackets hold non-standard residues; d marks the D form. Peptide text beside a SMILES is read from it. * marks the point of attachment. Cbz = O=C(OCc1ccccc1)*; Ava = NCCCCC(=O)O

Test system: P388 leukemia ip, CD2F1 mice, survival T/C
Assay: NCI In Vivo Anticancer Drug Screen. Data for tumor model P388 Leukemia (intraperitoneal) in CD2F1 (CDF1) mice
Settings: endpoint: median survival time, higher = longer survival
Summary of the method: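 Mice carrying the transplanted tumor received test compound or vehicle. Survival was recorded in each group, and the value is the treated-group measurement divided by that of the vehicle-treated control group.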

[1] = dose: 50.0 mg/kg/injection, schedule: Q01DX005 (ip), vehicle: saline with Tween-80
[2] = dose: 100.0 mg/kg/injection, schedule: Q01DX005 (ip), vehicle: saline with Tween-80
[3] = dose: 200.0 mg/kg/injection, schedule: Q01DX005 (ip), vehicle: saline with Tween-80
[4] = dose: 50.0 mg/kg/injection, schedule: Q01DX005 (ip), vehicle: Klucel (hydroxypropylcellulose) (HPC)
[5] = dose: 100.0 mg/kg/injection, schedule: Q01DX005 (ip), vehicle: Klucel (hydroxypropylcellulose) (HPC)
[6] = dose: 200.0 mg/kg/injection, schedule: Q01DX005 (ip), vehicle: Klucel (hydroxypropylcellulose) (HPC)
[7] = dose: 100.0 mg/kg/injection, schedule: Q04DX002 (ip), vehicle: saline with Tween-80
[8] = dose: 200.0 mg/kg/injection, schedule: Q04DX002 (ip), vehicle: saline with Tween-80
[9] = dose: 400.0 mg/kg/injection, schedule: Q04DX002 (ip), vehicle: saline with Tween-80
[10] = dose: 50.0 mg/kg/injection, schedule: Q01DX009 (ip), vehicle: Klucel (hydroxypropylcellulose) (HPC)
[11] = dose: 100.0 mg/kg/injection, schedule: Q01DX009 (ip), vehicle: Klucel (hydroxypropylcellulose) (HPC)
[12] = dose: 200.0 mg/kg/injection, schedule: Q01DX009 (ip), vehicle: Klucel (hydroxypropylcellulose) (HPC)
[13] = dose: 60.0 mg/kg/injection, schedule: Q01DX005 (ip), vehicle: saline with Tween-80

## CC12CCC(C(Br)C1=O)C2(C)CBr (configuration not stated)
[1]
  T/C: 103 % of control
[2]
  T/C: 104 % of control
[3]
  T/C: 92 % of control

## C[Si]1(C)O[Si](C)(C)O[Si](C)(C)O[Si](C)(C)O1
[4]
  T/C: 100 % of control
[5]
  T/C: 97 % of control
[6]
  T/C: 97 % of control

## C[CH2][Sn]([CH2]C)([n]1c(C)nc2ccccc21)[n]1c(C)nc2ccccc21
dose: 1.56 mg/kg/injection, schedule: Q01DX005 (ip), vehicle: Klucel (hydroxypropylcellulose) (HPC)
  T/C: 110 % of control
dose: 3.12 mg/kg/injection, schedule: Q01DX005 (ip), vehicle: Klucel (hydroxypropylcellulose) (HPC)
  T/C: 122 % of control
dose: 6.25 mg/kg/injection, schedule: Q01DX005 (ip), vehicle: Klucel (hydroxypropylcellulose) (HPC)
  T/C: 122 % of control

## CC(CO)(CO)N(CCO)CCO
dose: 50.0 mg/kg/injection, schedule: Q01DX005 (ip), vehicle: saline
  T/C: 101 % of control
dose: 100.0 mg/kg/injection, schedule: Q01DX005 (ip), vehicle: saline
  T/C: 101 % of control
dose: 200.0 mg/kg/injection, schedule: Q01DX005 (ip), vehicle: saline
  T/C: 99 % of control

## CC1NC(=O)C(NC(=O)OCc2ccccc2)COC(=O)C(C(C)C)NC(=O)CCCCNC1=O (configuration not stated) (Cbz-SA[Ava]V; ester 1-C; configuration not given here)
[7]
  T/C: 100 % of control
[8]
  T/C: 104 % of control
[9]
  T/C: 104 % of control

## C=C1Sc2ccccc2N1C
dose: 6.25 mg/kg/injection, schedule: Q01DX009 (ip), vehicle: Klucel (hydroxypropylcellulose) (HPC)
  T/C: 111 % of control
dose: 12.5 mg/kg/injection, schedule: Q01DX009 (ip), vehicle: Klucel (hydroxypropylcellulose) (HPC)
  T/C: 107 % of control and 114 % of control
dose: 25.0 mg/kg/injection, schedule: Q01DX009 (ip), vehicle: Klucel (hydroxypropylcellulose) (HPC)
  T/C: 123 % of control

## Cc1ccc(S(=O)(=O)CC(O)(C(C)C)C(C)C)cc1
[1]
  T/C: 103 % of control
[2]
  T/C: 102 % of control
[3]
  T/C: 102 % of control

## COC(=O)C(N)=NCC(C)NC(=O)c1ccccc1 (configuration not stated)
[10]
  T/C: 99 % of control
[11]
  T/C: 101 % of control
[12]
  T/C: 100 % of control

## CC(=O)N=c1sccn1CC(O)c1ccccc1 (configuration not stated)
[10]
  T/C: 105 % of control
[11]
  T/C: 99 % of control
dose: 200.0 mg/kg/injection, schedule: Q01DX001 (ip), vehicle: Klucel (hydroxypropylcellulose) (HPC)
  T/C: 118 % of control
[12]
  T/C: 108 % of control
dose: 400.0 mg/kg/injection, schedule: Q01DX001 (ip), vehicle: Klucel (hydroxypropylcellulose) (HPC)
  T/C: 100 % of control

## Cc1c(O)/c(=C\O)c2nc3c(=O)ccc(C(=O)NCCN(C)C)c3[nH]c2c1=O
dose: 6.25 mg/kg/injection, schedule: Q01DX005 (ip), vehicle: other
  T/C: 117 % of control
dose: 7.5 mg/kg/injection, schedule: Q03HX015 (ip), vehicle: water
  T/C: 160 % of control
dose: 12.5 mg/kg/injection, schedule: Q01DX005 (ip), vehicle: other
  T/C: 120 % of control
dose: 15.0 mg/kg/injection, schedule: Q03HX015 (ip), vehicle: water
  T/C: 177 % of control
dose: 50.0 mg/kg/injection, schedule: Q01DX005 (ip), vehicle: other
  T/C: 123 % of control

## C=C1C(=O)OC2C/C(C)=C/CC/C(C)=C/CCC3(COC(C)=O)OC3CC12 (configuration not stated)
dose: 1.0 mg/kg/injection, schedule: Q01DX008 (ip), vehicle: Klucel (hydroxypropylcellulose) (HPC)
  T/C: 99 % of control
dose: 2.0 mg/kg/injection, schedule: Q01DX008 (ip), vehicle: Klucel (hydroxypropylcellulose) (HPC)
  T/C: 100 % of control
dose: 4.0 mg/kg/injection, schedule: Q01DX008 (ip), vehicle: Klucel (hydroxypropylcellulose) (HPC)
  T/C: 97 % of control
dose: 8.0 mg/kg/injection, schedule: Q01DX008 (ip), vehicle: Klucel (hydroxypropylcellulose) (HPC)
  T/C: 103 % of control
dose: 16.0 mg/kg/injection, schedule: Q01DX008 (ip), vehicle: Klucel (hydroxypropylcellulose) (HPC)
  T/C: 107 % of control

## O=C(O)C(Cc1ccsc1)NC(=O)C(F)(F)F (configuration not stated)
dose: 50.0 mg/kg/injection, schedule: Q01DX009 (ip), vehicle: saline + alcohol
  T/C: 94 % of control
dose: 100.0 mg/kg/injection, schedule: Q01DX009 (ip), vehicle: saline + alcohol
  T/C: 99 % of control
dose: 200.0 mg/kg/injection, schedule: Q01DX009 (ip), vehicle: saline + alcohol
  T/C: 98 % of control

## COc1ccc(C(O)(c2ccccc2)c2ccccc2)c(OC)c1
[10]
  T/C: 98 % of control
[11]
  T/C: 93 % of control
[12]
  T/C: 95 % of control

## CCCCCCCCCCCCCCCCOc1ccc(S(=O)(=O)c2ccccc2)cc1[N+](=O)[O-]
dose: 25.0 mg/kg/injection, schedule: Q04DX003 (ip), vehicle: saline sonified
  T/C: 100 % of control
dose: 50.0 mg/kg/injection, schedule: Q04DX003 (ip), vehicle: saline sonified
  T/C: 100 % of control
dose: 100.0 mg/kg/injection, schedule: Q04DX003 (ip), vehicle: saline sonified
  T/C: 90 % of control

## c1cnc(Nc2c3ccccc3nc3ccccc23)nc1
[7]
  T/C: 103 % of control
[8]
  T/C: 103 % of control
[9]
  T/C: 94 % of control

## COc1cc(/C=N/NC(=O)c2cc(OC)c(OC)c(OC)c2)ccc1O
[13]
  T/C: 99 % of control
dose: 120.0 mg/kg/injection, schedule: Q01DX005 (ip), vehicle: saline with Tween-80
  T/C: 101 % of control
dose: 240.0 mg/kg/injection, schedule: Q01DX005 (ip), vehicle: saline with Tween-80
  T/C: 95 % of control

## C[n+]1c(-c2ccc(/C=N/Nc3ccnc(N/N=C/c4ccc(-c5cn6ccccc6[n+]5C)cc4)n3)cc2)cn2ccccc21
dose: 30.0 mg/kg/injection, schedule: Q01DX005 (ip), vehicle: saline with Tween-80
  T/C: 150 % of control
[13]
  T/C: 88 % of control

## CCOc1ccc(Nc2nc(C(Cl)(Cl)Cl)cc(C(Cl)(Cl)Cl)n2)cc1CN(CC)CC
dose: 6.25 mg/kg/injection, schedule: Q01DX009 (ip), vehicle: saline sonified
  T/C: 100 % of control
dose: 12.5 mg/kg/injection, schedule: Q01DX009 (ip), vehicle: saline sonified
  T/C: 100 % of control
dose: 25.0 mg/kg/injection, schedule: Q01DX009 (ip), vehicle: saline sonified
  T/C: 100 % of control

## N#CC1CC(=O)c2ccccc2C1=O (configuration not stated)
[4]
  T/C: 102 % of control
[5]
  T/C: 104 % of control
[6]
  T/C: 108 % of control

## O=C(NC(=O)c1cccc2ccccc12)NC(=S)c1cccc2ccccc12
dose: 100.0 mg/kg/injection, schedule: Q01DX001 (ip), vehicle: saline
  T/C: 103 % of control and 96 % of control
dose: 200.0 mg/kg/injection, schedule: Q01DX001 (ip), vehicle: saline
  T/C: 109 % of control and 95 % of control
dose: 400.0 mg/kg/injection, schedule: Q01DX001 (ip), vehicle: saline
  T/C: 101 % of control and 87 % of control

## O=C1CCSC(=S)N1c1ccccc1C(F)(F)F
dose: 50.0 mg/kg/injection, schedule: Q01DX009 (ip), vehicle: suspension in saline
  T/C: 90 % of control
dose: 100.0 mg/kg/injection, schedule: Q01DX009 (ip), vehicle: suspension in saline
  T/C: 92 % of control
dose: 200.0 mg/kg/injection, schedule: Q01DX009 (ip), vehicle: suspension in saline
  T/C: 99 % of control

## CC(C)=CCn1c2ccccc2c(=O)c2ccccc21
[1]
  T/C: 112 % of control
[2]
  T/C: 105 % of control
[3]
  T/C: 107 % of control

## CP1(=S)CC(Br)=C2CCCCC21 (configuration not stated)
dose: 100.0 mg/kg/injection, schedule: Q04DX003 (ip), vehicle: Klucel (hydroxypropylcellulose) (HPC)
  T/C: 108 % of control
dose: 200.0 mg/kg/injection, schedule: Q04DX003 (ip), vehicle: Klucel (hydroxypropylcellulose) (HPC)
  T/C: 106 % of control
dose: 400.0 mg/kg/injection, schedule: Q04DX003 (ip), vehicle: Klucel (hydroxypropylcellulose) (HPC)
  T/C: 107 % of control

## CCCCCCOC(=O)C1=C(NC)CCC1
dose: 50.0 mg/kg/injection, schedule: Q01DX009 (ip), vehicle: saline
  T/C: 106 % of control
dose: 100.0 mg/kg/injection, schedule: Q01DX009 (ip), vehicle: saline
  T/C: 119 % of control

## COc1cc(-c2ccc(N=Nc3c(O)c(C(=O)Nc4ccccc4OC)cc4ccccc34)c(OC)c2)ccc1N=Nc1c(O)c(C(=O)Nc2ccccc2OC)cc2ccccc12
dose: 6.25 mg/kg/injection, schedule: Q01DX005 (ip), vehicle: saline with Tween-80
  T/C: 90 % of control
dose: 12.5 mg/kg/injection, schedule: Q01DX005 (ip), vehicle: saline with Tween-80
  T/C: 96 % of control
dose: 25.0 mg/kg/injection, schedule: Q01DX005 (ip), vehicle: saline with Tween-80
  T/C: 89 % of control

## CCC1(C)NN=C2C(=CC=C3NNC(C)(CC)N32)n2cccc21 (configuration not stated)
[1]
  T/C: 102 % of control
[2]
  T/C: 110 % of control
[3]
  T/C: 119 % of control
